Laboratory results reported in ChEMBL document CHEMBL3627618, “Rethinking the old antiviral drug moroxydine: Discovery of novel analogues as anti-hepatitis C virus (HCV) agents” (Bioorg Med Chem Lett, 2015).
The source made the active and inactive calls. The calls are words filed in the database; no cut-off is given here.

Legend:
[1] = Cytotoxicity against human HuH7-J20 cells expressing secreted alkaline phosphatase reporter gene assessed as cell viability at 10 uM incubated for 1 hr by WST-1 assay; format: cell-based; settings: huh-7, 1 h
Hepatitis C virus [2] = experiment: Antiviral activity against HCV pseudotyped particles infected in human HuH7 cells assessed as reduction of viral entry preincubated with cells for 1 hr followed by viral inoculation for 3 hrs by luciferase reporter gene assay; format: functional, organism-based; settings: Hepacivirus hominis; Huh-7
Hepatitis C virus [3] = experiment: (§1) Antiviral activity against HCV JFH1 infected in human HuH7-J20 cells assessed as inhibition of viral life cycle by measuring secreted alkaline phosphatase level preincubated with cells for 1 hr followed by viral inoculation for 3 hrs measured at 72 hrs; format: functional, cell-based, Hepacivirus hominis; settings: for EC50: genotype 2a JFH-1, Huh-7
[4] = Cytotoxicity against human HuH7-J20 cells expressing secreted alkaline phosphatase reporter gene assessed as cell viability incubated for 1 hr by WST-1 assay; format: cell-based, Huh-7
Hepatitis C virus [5] = experiment: as §1, with “3 hrs and fresh drug administration every 24 hrs at 1/10th of initial concentration for 48 hrs measured at” for “3 hrs measured at”; format: functional, cell-based, Hepacivirus hominis; settings: genotype 2a JFH-1, Huh-7
[6] = Cytotoxicity against human HuH7-J20 cells expressing secreted alkaline phosphatase reporter gene assessed as cell viability preincubated for 1 hr followed by fresh drug administration every 24 hrs at 1/10th of initial concentration for 48 hrs by WST-1 assay; format: cell-based, Huh-7
[7] = Selectivity index, ratio of CC50 for human HuH7-J20 cells expressing secreted alkaline phosphatase reporter gene incubated for 1 hr to EC50 for HCV JFH1 infected in human HuH7-J20 cells preincubated with cells for 1 hr followed by viral inoculation for 3 hrs measured at 72 hrs; design: species or system Huh-7
[8] = Selectivity index, ratio of CC50 for human HuH7-J20 cells expressing secreted alkaline phosphatase reporter gene preincubated for 1 hr followed by fresh drug administration every 24 hrs for 48 hrs to EC50 for HCV JFH1 infected in human HuH7-J20 cells preincubated with cells for 1 hr followed by viral inoculation for 3 hrs and fresh drug administration every 24 hrs at 1/10th of initial concentration for 48 hrs measured at 72 hrs; design: species or system Huh-7
Hepatitis C virus [9] = experiment: Ratio of EC50 for HCV JFH1 infected in human HuH7-J20 cells preincubated with cells for 1 hr followed by viral inoculation for 3 hrs measured at 72 hrs to EC50 for HCV JFH1 infected in human HuH7-J20 cells preincubated with cells for 1 hr followed by viral inoculation for 3 hrs and fresh drug administration every 24 hrs at 1/10th of initial concentration for 48 hrs measured at 72 hrs; format: functional, Hepacivirus hominis, genotype 2a JFH-1, Huh-7
[10] = Cytotoxicity against human HuH7 assessed as cell viability after 24 hrs by WST-1 assay; format: cell-based; settings: huh-7, 24 h
Hepatitis C virus [11] = experiment: Antiviral activity against HCV JFH1 infected in human HuH7-J20 cells assessed as inhibition of viral life cycle by measuring secreted alkaline phosphatase level […] preincubated with cells for 1 hr followed by viral inoculation for 3 hrs measured at 72 hrs relative to control; format: functional; settings: Hepacivirus hominis; genotype 2a JFH-1; Huh-7
Hepatitis C virus [12] = experiment: Antiviral activity against HCV JFH1 sub genomic replicon infected in human HuH7 cells assessed as inhibition of viral RNA replication at 10 uM measured after 24 hrs by luciferase reporter gene assay; format: functional, Hepacivirus hominis; settings: genotype 2a JFH-1, Huh-7, 24 h

SMILES	Activity [1]	Activity (Hepatitis C virus [2])	EC50 (Hepatitis C virus [3]) [µM]	CC50 at 1 h [4] [µM]	EC50 (Hepatitis C virus [5]) [µM]	CC50 at 48 h [6] [µM]	Ratio CC50/EC50 [7]	Ratio CC50/EC50 [8]	also measured
Cl.N=C(NCc1ccccc1)NC(=O)N1CCN(c2ccc(F)cc2)CC1	Non-toxic	inactive							
Cc1ccc(N2CCN(C(=O)NC(=N)Nc3ccccc3)CC2)cc1.Cl		inactive	9.35	26.4	4.7	21	2.82	4.4	
Cl.N=C(NCc1ccccc1)NC(=O)N1CCCC1	Non-toxic	inactive							
Cl.N=C(NCc1ccccc1)NC(=O)N1CCN(c2ccccc2)CC1	Non-toxic	inactive							
CC(C)(C)OC(=O)/N=C(\NCc1ccccc1)NC(=O)N1CCOCC1	Non-toxic								
CC(C)(C)OC(=O)NC(=N)NC(=O)NCc1ccccc1			21.9	92.9	6.17	49.3	4.25	7.99	Ratio EC50 (Hepatitis C virus [9]): 3; Activity [10]: Non-toxic
N=C(N)NC(=N)Nc1ccc(F)cc1									inhibition (Hepatitis C virus [11]): inactive
Cl.N=C(NC(=O)N1CCN(c2ccc([N+](=O)[O-])cc2)CC1)Nc1ccc(Cl)cc1	Non-toxic	inactive							
Cc1ccc(N2CCN(C(=O)NC(=N)Nc3ccc(Cl)cc3)CC2)cc1.Cl	Non-toxic	inactive							
C=CCNC(=O)NC(=N)NCc1ccccc1.Cl	Non-toxic	inactive							
Cl.N=C(NC(=O)N1CCN(c2ccc([N+](=O)[O-])cc2)CC1)Nc1ccccc1	Non-toxic	inactive							
Cl.N=C(NC(=O)N1CCN(c2cc(Cl)cc(Cl)c2)CC1)Nc1ccc(Cl)cc1		inactive	10.4	63	1.69	34.2	6.06	20.2	Activity [10]: Non-toxic
CC(C)(C)OC(=O)/N=C(\NCc1ccccc1)NC(=O)N1CCN(c2ccccc2)CC1	Non-toxic								
NC(=O)c1ncn([C@@H]2O[C@H](CO)[C@@H](O)[C@H]2O)n1 [RIBAVIRIN]			30.4	> 30	33.5	30.5	>1	0.91	
Cl.N=C(NC(=O)N1CCN(c2ccccc2)CC1)Nc1ccc(Cl)cc1		inactive	11.2	> 30	1.3	39.7	>2.68	30.4	inhibition at 10 µM (Hepatitis C virus [12]): ≤ 50%; Activity [10]: Non-toxic
CCOC(=O)CNC(=O)NC(=N)N.Cl	Non-toxic								
N=C(N)NC(=N)N1CCOCC1									inhibition (Hepatitis C virus [3]; Hepacivirus hominis, genotype 2a JFH-1, Huh-7): inactive
Cl.N=C(NC(=O)N1CCN(c2ccc(Cl)cc2)CC1)Nc1ccccc1	Non-toxic	inactive							
Cl.N=C(NCc1ccccc1)NC(=O)N1CCN(c2ccc(Cl)cc2)CC1		inactive	45.7	64	2.41	34.7	1.4	14.4	inhibition at 10 µM (Hepatitis C virus [12]): ≤ 50%; Activity [10]: Non-toxic
Cl.N=C(NC(=O)N1CCN(c2ccc(C34CC5CC(CC(C5)C3)C4)cc2)CC1)Nc1ccc(Cl)cc1		inactive	9.8	73	13.9	77	7.45	5.54	Activity [10]: Non-toxic
Cl.N=C(N)NC(=O)NCCCCN	Non-toxic								
CCOC(=O)CNC(=O)NC(=N)NC(=O)OC(C)(C)C	Non-toxic								
N=C(N)NC(=N)NCc1ccccc1									inhibition (Hepatitis C virus [11]): inactive
N=C(N)NC(=N)Nc1ccccc1									inhibition (Hepatitis C virus [11]): inactive
Cl.N=C(N)NC(=O)N1CCOCC1	Non-toxic								
Cl.N=C(NCc1ccccc1)NC(=O)N1CCOCC1	Non-toxic	inactive							
Cl.N=C(NC(=O)N1CCN(c2ccccc2)CC1)Nc1ccccc1		inactive	59.5	> 30	8.7	> 30	0.5	>3.4	
N=C(N)NC(=N)N1CCN(c2ccccc2)CC1									inhibition (Hepatitis C virus [11]): inactive
Cl.N=C(N)NC(=O)NCc1ccccc1			52	324	35.3	325	6.23	9.19	
